Source: patent publication US20200231638A1, “STABILIZED ANTI-MICROBIAL PEPTIDES” (priority 2015, published 2020)
Bridge positions count the residues as written; N and C are the ends. Square brackets hold non-standard residues; d marks the D form. Peptide text beside a SMILES is read from it. Hyp = O=C(O)[C@@H]1C[C@@H](O)CN1; S5 = C=CCCC[C@](C)(N)C(=O)O; Nle = CCCC[C@H](N)C(=O)O; Aib = CC(C)(N)C(=O)O

Columns and labels:
[1] = test system: E. coli; assay type: cell-based, Escherichia coli
Summary of the method: (§1)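 Microdilution MIC test in polyanion-depleted MHB, with a final inoculum of 5×10^5 CFU/ml and 20-24 h incubation at 37° C.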

[2] = test system: human red blood cells; assay type: cell-based; details: red cells of human, 1 h, 25
Summary of the method: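 Hemolysis expressed as absorbance of released hemoglobin (570 nm) normalized between untreated and 1% Triton-X100 controls, with MHC taken as peptide concentration giving under 1% release. Peptide dilutions were exposed for 1 h at 37° C to a 1% (v/v) suspension of washed human red cells in PBS.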

[3] = test system: B. cereus; assay type: cell-based, Bacillus cereus
Summary of the method: as §1

[4] = test system: P. aeruginosa; assay type: cell-based, Pseudomonas aeruginosa
Summary of the method: as §1

[5] = test system: S. aureus; assay type: cell-based, Staphylococcus aureus
Summary of the method: as §1

SMILES | MIC E. coli [1] [µg/mL] | % Hemolysis at 25 μg/ml [2] [%] | MIC B. cereus [3] [µg/mL] | MIC P. aeruginosa [4] [µg/mL] | MIC S. aureus [5] [µg/mL]
CCCC[C@H](NC(=O)[C@]1(C)CCCC=CCCC[C@](C)(NC(=O)[C@H](C)NC(=O)[C@H](CCCCN)NC(=O)CNC(=O)[C@H](Cc2ccccc2)NC(=O)[C@H](CCCCN)NC(=O)[C@H](CCCCN)NC(=O)[C@H](C)NC(=O)[C@H](CO)NC(=O)[C@H](Cc2c[nH]cn2)NC(=O)[C@H](CC(C)C)NC(=O)[C@H](Cc2ccccc2)NC(=O)[C@H](CCCCN)NC(=O)CNC(=O)[C@@H](NC(=O)[C@@H](N)CCCCN)[C@@H](C)CC)C(=O)N[C@@H](C(C)C)C(=O)NCC(=O)N[C@@H](CCC(=O)O)C(=O)N1)C(=O)N[C@@H](CC(N)=O)C(=O)N[C@@H](CO)C(N)=O [Mag(i + 4)15(G1K), KIGKFLHSAKKFGKAXVGEXBNS] (H-KIGKFLHSAKKFGKA[S5]VGE[S5][Nle]NS-NH2; staple 16-20) | 1.6 | 4.5 | 12.5 | 3.1 | 25
CCCC[C@H](NC(=O)[C@]1(C)CCCC=CCCC[C@](C)(NC(=O)[C@H](C)NC(=O)[C@H](CCCCN)NC(=O)CNC(=O)[C@H](Cc2ccccc2)NC(=O)[C@H](CCCCN)NC(=O)[C@H](CCCCN)NC(=O)[C@H](C)NC(=O)[C@H](CO)NC(=O)[C@H](Cc2c[nH]cn2)NC(=O)[C@H](CC(C)C)NC(=O)[C@H](Cc2ccccc2)NC(=O)[C@H](CCCCN)NC(=O)[C@H](CCC(=O)O)NC(=O)[C@@H](NC(=O)CN)[C@@H](C)CC)C(=O)N[C@@H](C(C)C)C(=O)NCC(=O)N[C@@H](CCC(=O)O)C(=O)N1)C(=O)N[C@@H](CC(N)=O)C(=O)N[C@@H](CO)C(N)=O [Mag(i + 4)15(G3E), GIEKFLHSAKKFGKAXVGEXBNS] (H-GIEKFLHSAKKFGKA[S5]VGE[S5][Nle]NS-NH2; staple 16-20) | 3.1 | 3.9 | 12.5 | 12.5 | 50
CCCC[C@H](NC(=O)[C@]1(C)CCCC=CCCC[C@](C)(NC(=O)[C@H](C)NC(=O)[C@H](CCCCN)NC(=O)CNC(=O)[C@H](Cc2ccccc2)NC(=O)[C@H](CCCCN)NC(=O)[C@H](CCCCN)NC(=O)[C@H](C)NC(=O)[C@H](CO)NC(=O)[C@H](Cc2c[nH]cn2)NC(=O)[C@H](CC(C)C)NC(=O)[C@H](Cc2ccccc2)NC(=O)[C@H](CCCCN)NC(=O)[C@H](Cc2c[nH]cn2)NC(=O)[C@@H](NC(=O)CN)[C@@H](C)CC)C(=O)N[C@@H](C(C)C)C(=O)NCC(=O)N[C@@H](CCC(=O)O)C(=O)N1)C(=O)N[C@@H](CC(N)=O)C(=O)N[C@@H](CO)C(N)=O [Mag(i + 4)15(G3H), GIHKFLHSAKKFGKAXVGEXBNS] (H-GIHKFLHSAKKFGKA[S5]VGE[S5][Nle]NS-NH2; staple 16-20) | 1.6 | 5.1 | 6.2 | 12.5 | 25
CCCC[C@H](NC(=O)[C@]1(C)CCCC=CCCC[C@](C)(NC(=O)[C@H](C)NC(=O)[C@H](CCCCN)NC(=O)CNC(=O)[C@H](Cc2ccccc2)NC(=O)[C@H](CCCCN)NC(=O)[C@H](CCCCN)NC(=O)[C@H](C)NC(=O)[C@H](CO)NC(=O)[C@H](Cc2c[nH]cn2)NC(=O)[C@H](CC(C)C)NC(=O)[C@H](Cc2ccccc2)NC(=O)[C@H](CCCCN)NC(=O)[C@H](CCCCN)NC(=O)[C@@H](NC(=O)CN)[C@@H](C)CC)C(=O)N[C@@H](C(C)C)C(=O)NCC(=O)N[C@@H](CCC(=O)O)C(=O)N1)C(=O)N[C@@H](CC(N)=O)C(=O)N[C@@H](CO)C(N)=O [Mag(i + 4)15(G3K), GIKKFLHSAKKFGKAXVGEXBNS] (H-GIKKFLHSAKKFGKA[S5]VGE[S5][Nle]NS-NH2; staple 16-20) | 1.6 | 3.8 | 6.2 | 3.1 | 12.5
CCCC[C@H](NC(=O)[C@]1(C)CCCC=CCCC[C@](C)(NC(=O)[C@H](C)NC(=O)[C@H](CCCCN)NC(=O)C(C)(C)NC(=O)[C@H](Cc2ccccc2)NC(=O)[C@H](CCCCN)NC(=O)[C@H](CCCCN)NC(=O)[C@H](C)NC(=O)[C@H](CO)NC(=O)[C@H](Cc2c[nH]cn2)NC(=O)[C@H](CC(C)C)NC(=O)[C@H](Cc2ccccc2)NC(=O)[C@H](CCCCN)NC(=O)CNC(=O)[C@@H](NC(=O)CN)[C@@H](C)CC)C(=O)N[C@@H](C(C)C)C(=O)NCC(=O)N[C@@H](CCC(=O)O)C(=O)N1)C(=O)N[C@@H](CC(N)=O)C(=O)N[C@@H](CO)C(N)=O [Mag(i + 4)15(G13!), GIGKFLHSAKKF!KAXVGEXBNS] (H-GIGKFLHSAKKF[Aib]KA[S5]VGE[S5][Nle]NS-NH2; staple 16-20) | 1.6 | 71.5 | 3.1 | 3.1 | 3.1
CCCC[C@H](NC(=O)[C@]1(C)CCCC=CCCC[C@](C)(NC(=O)[C@H](C)NC(=O)[C@H](CCCCN)NC(=O)[C@@H]2C[C@@H](O)CN2C(=O)[C@H](Cc2ccccc2)NC(=O)[C@H](CCCCN)NC(=O)[C@H](CCCCN)NC(=O)[C@H](C)NC(=O)[C@H](CO)NC(=O)[C@H](Cc2c[nH]cn2)NC(=O)[C@H](CC(C)C)NC(=O)[C@H](Cc2ccccc2)NC(=O)[C@H](CCCCN)NC(=O)CNC(=O)[C@@H](NC(=O)CN)[C@@H](C)CC)C(=O)N[C@@H](C(C)C)C(=O)NCC(=O)N[C@@H](CCC(=O)O)C(=O)N1)C(=O)N[C@@H](CC(N)=O)C(=O)N[C@@H](CO)C(N)=O [Mag(i + 4)15(G13&), GIGKFLHSAKKF&KAXVGEXBNS] (H-GIGKFLHSAKKF[Hyp]KA[S5]VGE[S5][Nle]NS-NH2; staple 16-20) | 12.5 | 1.3 | >50 | 50 | >50
CCCC[C@H](NC(=O)[C@]1(C)CCCC=CCCC[C@](C)(NC(=O)[C@H](C)NC(=O)[C@H](CCCCN)NC(=O)[C@H](C)NC(=O)[C@H](Cc2ccccc2)NC(=O)[C@H](CCCCN)NC(=O)[C@H](CCCCN)NC(=O)[C@H](C)NC(=O)[C@H](CO)NC(=O)[C@H](Cc2c[nH]cn2)NC(=O)[C@H](CC(C)C)NC(=O)[C@H](Cc2ccccc2)NC(=O)[C@H](CCCCN)NC(=O)CNC(=O)[C@@H](NC(=O)CN)[C@@H](C)CC)C(=O)N[C@@H](C(C)C)C(=O)NCC(=O)N[C@@H](CCC(=O)O)C(=O)N1)C(=O)N[C@@H](CC(N)=O)C(=O)N[C@@H](CO)C(N)=O [Mag(i + 4)15(G13A), GIGKFLHSAKKFAKAXVGEXBNS] (H-GIGKFLHSAKKFAKA[S5]VGE[S5][Nle]NS-NH2; staple 16-20) | 1.6 | 20.5 | 3.1 | 6.2 | 3.1
CCCC[C@H](NC(=O)[C@]1(C)CCCC=CCCC[C@](C)(NC(=O)[C@H](C)NC(=O)[C@H](CCCCN)NC(=O)[C@H](CCC(=O)O)NC(=O)[C@H](Cc2ccccc2)NC(=O)[C@H](CCCCN)NC(=O)[C@H](CCCCN)NC(=O)[C@H](C)NC(=O)[C@H](CO)NC(=O)[C@H](Cc2c[nH]cn2)NC(=O)[C@H](CC(C)C)NC(=O)[C@H](Cc2ccccc2)NC(=O)[C@H](CCCCN)NC(=O)CNC(=O)[C@@H](NC(=O)CN)[C@@H](C)CC)C(=O)N[C@@H](C(C)C)C(=O)NCC(=O)N[C@@H](CCC(=O)O)C(=O)N1)C(=O)N[C@@H](CC(N)=O)C(=O)N[C@@H](CO)C(N)=O [Mag(i + 4)15(G13E), GIGKFLHSAKKFEKAXVGEXBNS] (H-GIGKFLHSAKKFEKA[S5]VGE[S5][Nle]NS-NH2; staple 16-20) | 25 | 2.2 | >50 | >50 | >50
CCCC[C@H](NC(=O)[C@]1(C)CCCC=CCCC[C@](C)(NC(=O)[C@H](C)NC(=O)[C@H](CCCCN)NC(=O)[C@H](CCCCN)NC(=O)[C@H](Cc2ccccc2)NC(=O)[C@H](CCCCN)NC(=O)[C@H](CCCCN)NC(=O)[C@H](C)NC(=O)[C@H](CO)NC(=O)[C@H](Cc2c[nH]cn2)NC(=O)[C@H](CC(C)C)NC(=O)[C@H](Cc2ccccc2)NC(=O)[C@H](CCCCN)NC(=O)CNC(=O)[C@@H](NC(=O)CN)[C@@H](C)CC)C(=O)N[C@@H](C(C)C)C(=O)NCC(=O)N[C@@H](CCC(=O)O)C(=O)N1)C(=O)N[C@@H](CC(N)=O)C(=O)N[C@@H](CO)C(N)=O [Mag(i + 4)15(G13K), GIGKFLHSAKKFKKAXVGEXBNS] (H-GIGKFLHSAKKFKKA[S5]VGE[S5][Nle]NS-NH2; staple 16-20) | 3.1 | 1.8 | >50 | 12.5 | >50
CCCC[C@H](NC(=O)[C@]1(C)CCCC=CCCC[C@](C)(NC(=O)[C@H](C)NC(=O)[C@H](CCCCN)NC(=O)[C@@H]2CCCN2C(=O)[C@H](Cc2ccccc2)NC(=O)[C@H](CCCCN)NC(=O)[C@H](CCCCN)NC(=O)[C@H](C)NC(=O)[C@H](CO)NC(=O)[C@H](Cc2c[nH]cn2)NC(=O)[C@H](CC(C)C)NC(=O)[C@H](Cc2ccccc2)NC(=O)[C@H](CCCCN)NC(=O)CNC(=O)[C@@H](NC(=O)CN)[C@@H](C)CC)C(=O)N[C@@H](C(C)C)C(=O)NCC(=O)N[C@@H](CCC(=O)O)C(=O)N1)C(=O)N[C@@H](CC(N)=O)C(=O)N[C@@H](CO)C(N)=O [Mag(i + 4)15(G13P), GIGKFLHSAKKFPKAXVGEXBNS] (H-GIGKFLHSAKKFPKA[S5]VGE[S5][Nle]NS-NH2; staple 16-20) | 3.1 | 2.0 | 25 | 25 | >50
